The values below come from the RepoRT retention time repository (doi:10.1016/j.jchromb.2020.122105).

Holding throughout (settings): stereoisomer not certain
A short description of series [1]: RP, Waters ACQUITY UPLC BEH C18, 100 × 2.1 mm, 1.7 µm, 0.2 mL/min, estimated dead time 1.1 min; A: water + 0.1% formic acid, pH 3; B: methanol + 0.1% formic acid, pH 3; gradient (min/%B) 0/5 5/5 25/100 30/100 30.1/5 35/5.
A short description of series [2]: RP, Waters CORTECS T3, 100 × 2.1 mm, 2.7 µm, 0.3 mL/min, estimated dead time 0.73 min; A: water + 0.1% formic acid, pH 3; B: methanol + 0.1% formic acid, pH 3; gradient (min/%B) 0/0 1/0 6/5 30/100 35/100 35.1/0 40/0.
Series [3] is described as follows: RP, Waters CORTECS T3, 100 × 2.1 mm, 2.7 µm, 0.15 mL/min, estimated dead time 1.5 min; A: water + 0.1% formic acid, pH 3; B: methanol + 0.1% formic acid, pH 3; gradient (min/%B) 0/5 5/5 25/95 25.1/100 35/100 35.1/5 45/5.
Series [4] is described as follows: HILIC, Waters XBridge BEH Amide, 100 × 2.1 mm, 2.5 µm, 0.5 mL/min, estimated dead time 0.44 min; A: water + 0.1% acetic acid + 10 mM ammonium acetate, pH 4; B: 5% water + 95% acetonitrile + 0.1% acetic acid + 10 mM ammonium acetate, pH 4; gradient (min/%B) 0/95 5/95 20/57 25/57 30/95 40/95.
The nature of series [5]: RP, Waters CORTECS T3, 100 × 2.1 mm, 2.7 µm, 0.3 mL/min, estimated dead time 0.73 min; A: water + 0.1% formic acid, pH 3; B: methanol + 0.1% formic acid, pH 3; gradient (min/%B) 0/0 5/0 25/100 30/100 30.1/0 35/0.
The nature of series [6]: RP, Waters ACQUITY UPLC BEH C18, 100 × 2.1 mm, 1.7 µm, 0.1 mL/min, estimated dead time 2.2 min; A: water + 0.1% formic acid, pH 3; B: methanol + 0.1% formic acid, pH 3; gradient (min/%B) 0/5 5/5 25/95 25.1/100 35/100 35.1/5 45/5.
A short description of series [7]: RP, Waters CORTECS T3, 100 × 2.1 mm, 2.7 µm, 0.25 mL/min, estimated dead time 0.88 min; A: water + 0.1% formic acid, pH 3; B: methanol + 0.1% formic acid, pH 3; gradient (min/%B) 0/5 5/5 25/95 25.1/100 35/100 35.1/5 45/5.
Series [8] can be described thus: RP, Waters CORTECS T3, 100 × 2.1 mm, 2.7 µm, 0.2 mL/min, estimated dead time 1.1 min; A: water + 0.1% formic acid, pH 3; B: methanol + 0.1% formic acid, pH 3; gradient (min/%B) 0/0 1/0 6/5 30/100 35/100 35.1/0 40/0.
Series [9] in a line: RP, Waters ACQUITY UPLC BEH C18, 100 × 2.1 mm, 1.7 µm, 0.2 mL/min, estimated dead time 1.1 min; A: water + 0.025% formic acid + 20 mM ammonium acetate + 0.055% ammonium hydroxide, pH 7; B: methanol; gradient (min/%B) 0/5 5/5 25/100 30/100 30.1/5 35/5.
Series [10] is described as follows: RP, Waters CORTECS T3, 100 × 2.1 mm, 2.7 µm, 0.2 mL/min, estimated dead time 1.1 min; A: water + 0.1% formic acid, pH 3; B: methanol + 0.1% formic acid, pH 3; gradient (min/%B) 0/5 5/5 25/95 25.1/100 35/100 35.1/5 45/5.
The nature of series [11]: RP, Waters CORTECS T3, 100 × 2.1 mm, 2.7 µm, 0.3 mL/min, estimated dead time 0.73 min; A: water + 0.1% formic acid, pH 3; B: methanol + 0.1% formic acid, pH 3; gradient (min/%B) 0/5 5/5 25/100 30/100 30.1/5 35/5.
The nature of series [12]: RP, Waters CORTECS T3, 100 × 2.1 mm, 2.7 µm, 0.3 mL/min, estimated dead time 0.73 min; A: water + 0.1% formic acid, pH 3; B: methanol + 0.1% formic acid, pH 3; gradient (min/%B) 0/0 5/0 25/100 30/100 30.1/0 35/0. The source holds these as a separate data set.
The nature of series [13]: RP, Waters CORTECS T3, 100 × 2.1 mm, 2.7 µm, 0.15 mL/min, estimated dead time 1.5 min; A: water + 0.1% formic acid, pH 3; B: methanol + 0.1% formic acid, pH 3; gradient (min/%B) 0/0 1/0 6/5 30/100 35/100 35.1/0 40/0.
Series [14] is described as follows: RP, Waters CORTECS T3, 100 × 2.1 mm, 2.7 µm, 0.3 mL/min, estimated dead time 0.73 min; A: water + 0.1% formic acid, pH 3; B: methanol + 0.1% formic acid, pH 3; gradient (min/%B) 0/5 5/5 25/95 25.1/100 35/100 35.1/5 45/5.
Series [15] can be described thus: RP, Waters CORTECS T3, 100 × 2.1 mm, 2.7 µm, 0.2 mL/min, estimated dead time 1.1 min; A: water + 0.1% formic acid, pH 3; B: methanol + 0.1% formic acid, pH 3; gradient (min/%B) 0/0 1/0 6/5 30/100 35/100 35.1/0 40/0. The source holds these as a separate data set.
A short description of series [16]: RP, Waters CORTECS T3, 100 × 2.1 mm, 2.7 µm, 0.25 mL/min, estimated dead time 0.88 min; A: water + 0.1% formic acid, pH 3; B: methanol + 0.1% formic acid, pH 3; gradient (min/%B) 0/0 1/0 6/5 30/100 35/100 35.1/0 40/0.
A short description of series [17]: RP, Waters CORTECS T3, 100 × 2.1 mm, 2.7 µm, 0.3 mL/min, estimated dead time 0.73 min; A: water + 0.1% formic acid, pH 3; B: methanol + 0.1% formic acid, pH 3; gradient (min/%B) 0/0 1/0 6/5 30/100 35/100 35.1/0 40/0. The source holds these as a separate data set.
A short description of series [18]: RP, Waters ACQUITY UPLC BEH C18, 100 × 2.1 mm, 1.7 µm, 0.1 mL/min, estimated dead time 2.2 min; A: water + 0.1% formic acid, pH 3; B: methanol + 0.1% formic acid, pH 3; gradient (min/%B) 0/5 5/5 25/100 30/100 30.1/5 35/5.
Series [19] in a line: HILIC, Merck SeQuant ZIC-HILIC, 150 × 2.1 mm, 5 µm, 0.75 mL/min, estimated dead time 0.44 min; A: water + 0.1% acetic acid + 10 mM ammonium acetate, pH 4; B: 5% water + 95% acetonitrile + 0.1% acetic acid + 10 mM ammonium acetate, pH 4; gradient (min/%B) 0/95 5/95 20/57 25/57 30/95 40/95.
Series [20] can be described thus: HILIC, Merck SeQuant ZIC-HILIC, 150 × 2.1 mm, 5 µm, 0.75 mL/min, estimated dead time 0.44 min; A: water + 10 mM ammonium formate, pH 6; B: 5% water + 95% acetonitrile + 10 mM ammonium formate, pH 6; gradient (min/%B) 0/95 5/95 20/57 25/57 30/95 40/95.
A short description of series [21]: RP, Waters CORTECS T3, 100 × 2.1 mm, 2.7 µm, 0.1 mL/min, estimated dead time 2.2 min; A: water + 0.1% formic acid, pH 3; B: methanol + 0.1% formic acid, pH 3; gradient (min/%B) 0/5 5/5 25/95 25.1/100 35/100 35.1/5 45/5.
A short description of series [22]: RP, Waters CORTECS T3, 100 × 2.1 mm, 2.7 µm, 0.1 mL/min, estimated dead time 2.2 min; A: water + 0.1% formic acid, pH 3; B: methanol + 0.1% formic acid, pH 3; gradient (min/%B) 0/0 1/0 6/5 30/100 35/100 35.1/0 40/0.

The structures appear in SMILES notation.

For the compound `CSCCC(NC(C)=O)C(=O)O` (racemic) [N-ACETYL-DL-METHIONINE], the LC retention time in series [1] is 9.48 min; in series [2] it was 8.96 min; in [3], 10.4 min; in series [4], 8.06 min; in [5], 9.23 min; in series [6], 13.3 min. Besides, the LC retention time in series [7] was 7.94 min; in series [8] it was 10.6 min; in [9], 2.97 min; in series [10], 14.3 min.

In the case of `N[C@@H](Cc1ccc(O)c(O)c1)C(=O)O` [3,4-DIHYDROXY-L-PHENYLALANINE], the LC retention time is 1.38 min in series [1]; 1.78 min in [3]; 0.93 min in [11]; 2.7 min in [6]; 0.93 min in series [12]; 1.87 min in series [13]. The LC retention time was 0.9 min in series [14]; 1.38 min in series [15]; 1.13 min in series [16]; 1.42 min in series [8]; 0.92 min in series [17]; 2.75 min in series [10]. For the same compound, in series [18], the LC retention time is 2.74 min.

In the case of `CC(O)(CC(=O)O)C(=O)O` (stereo unspecified) [CITRAMALATE], the LC retention time in series [1] was 2.7 min; in series [2], 2.32 min; in series [3], 3.28 min; in [19], 12.2 min; in series [5], 2.32 min; in [6] it was 5.3 min. Further, the LC retention time in series [20] is 12.8 min; in series [7] it was 1.99 min; in [8] it was 3.28 min; in [10] it was 6.38 min.

`COc1cc(C=CC(=O)O)ccc1O` [FERULATE]: the LC retention time was 17.2 min in series [21]; 14.3 min in series [1]; 15.1 min in [3]; 2.26 min in series [4]; 12.3 min in series [11]; 3.23 min in series [19]. Further, the LC retention time is 17.2 min in series [6]; 16.9 min in [13]; 2.09 min in series [20]; 14.8 min in series [16]; 15.6 min in series [8]; 1.78 min in series [9]. In addition, the LC retention time is 14.1 min in series [17] and 19.1 min in series [10].

Turning to `Nc1nc2ncc(CNc3ccc(C(=O)NC(CCC(=O)O)C(=O)O)cc3)nc2c(=O)[nH]1` (stereo unspecified) [FOLIC ACID], the LC retention time is 11.2 min in series [1]; 12.2 min in series [2]; 12.6 min in series [3]; 10.5 min in series [11]; 14.4 min in [19]; 11.4 min in [5]. Further, the LC retention time is 11.3 min in series [12]; 10.7 min in series [14]; 14.9 min in series [20]; 11.1 min in series [7]; 13.2 min in series [15]; 12.6 min in series [16]. For the same compound, the LC retention time was 13.2 min in series [8]; 1.36 min in series [9]; 12.2 min in [17]; 11.7 min in series [22]; 15.9 min in series [10]; 13.8 min in series [18].

As to `CC(=O)N[C@@H](CC(=O)O)C(=O)O` [N-ACETYL-L-ASPARTIC ACID], the LC retention time in series [1] was 1.84 min; in series [2] it was 0.96 min; in series [3] it was 1.83 min; in [4], 13.5 min; in [19], 13.5 min; in series [5], 0.97 min. Also, the LC retention time in series [20] was 14 min; in [7], 1.13 min; in series [8], 1.42 min; in series [9] it was 1.36 min; in series [10] it was 2.78 min.
